The values below come from ChEMBL document CHEMBL3046842, “Antimicrobial and insect antifeedant activities of some Trogers bases” (2012).

Molecules are shown by their SMILES. The source made the active and inactive calls.

For assay [1], the system named is Escherichia coli. Briefly: Antibacterial activity against Escherichia coli at 250 ug/ml after 24 to 45 hrs by disc diffusion method. It is filed as functional. The settings on record: read-out: IZ. For orientation: In agar diffusion tests the substance spreads into inoculated agar from a disc or well.
The test system of assay [2] is Klebsiella pneumoniae. Nature of the assay: Antibacterial activity against Klebsiella pneumoniae at 250 ug/ml after 24 to 45 hrs by disc diffusion method. In kind it is functional. As to conditions: read-out: IZ.
In assay [3] the test system is Penicillium. Nature of the assay: Antifungal activity against Penicillium at 50 ug/ml after 72 hrs by disc diffusion method. In kind it is functional, organism-based.
The test system of assay [4] is Enterococcus faecalis. Nature of the assay: Antibacterial activity against Enterococcus faecalis at 250 ug/ml after 24 to 45 hrs by disc diffusion method. In kind it is functional. The settings on record: for zone of inhibition at 250 µg/mL: read-out: IZ.
Assay [5] deals with Staphylococcus aureus. Nature of the assay: Antibacterial activity against Staphylococcus aureus at 250 ug/ml after 24 to 45 hrs by disc diffusion method. In kind it is functional. As to conditions: read-out: IZ.
Assay [6] has as its system Candida albicans. Nature of the assay: Antifungal activity against Candida albicans at 250 ug/ml after 72 hrs by disc diffusion method. As to conditions: for zone of inhibition at 250 µg/mL: read-out: IZ. It is filed as functional.
Assay [7] has as its system Aspergillus niger. Nature of the assay: Antifungal activity against Aspergillus niger at 50 ug/ml after 72 hrs by disc diffusion method. It is filed as functional, organism-based.
Assay [8] deals with Pseudomonas. Briefly: Antibacterial activity against Pseudomonas at 250 ug/ml after 24 to 45 hrs by disc diffusion method. In kind it is functional. As to conditions: read-out: IZ.
Assay [9] concerns Proteus vulgaris. Nature of the assay: Antibacterial activity against Proteus vulgaris at 250 ug/ml after 24 to 45 hrs by disc diffusion method. In kind it is functional. The settings on record: for zone of inhibition at 250 µg/mL: read-out: IZ.

With `Cc1cc(C)c2c(c1)CN1CN2Cc2cc(C)cc(C)c21`, the zone of inhibition at 250 µg/mL was 13 mm in assay [1]; 13 mm in [2]; 8 mm in assay [4]; 13 mm in [5]; 13 mm in assay [6]; 8 mm in assay [8]. Besides, the zone of inhibition at 250 µg/mL in assay [9] worked out at 13 mm. Besides, the result in assay [3] and in assay [7] was inactive.
With `Cc1cccc2c1N1Cc3cccc(C)c3N(C2)C1`, the zone of inhibition at 250 µg/mL turned out to be 8 mm in assay [1]; 13 mm in assay [2]; 13 mm in assay [4]; 8 mm in assay [5]; 13 mm in [6]; 13 mm in assay [8]. In addition, the zone of inhibition at 250 µg/mL in assay [9] was found to be 8 mm. In addition, the result in assay [3] and in [7] was inactive.
In the case of `c1ccc2c(c1)CN1CN2Cc2ccccc21`, the zone of inhibition at 250 µg/mL in assay [1] came to 8 mm; in assay [2], 8 mm; in assay [5], 13 mm; in assay [8], 8 mm; in assay [9], 8 mm. Also, the outcome in assay [3], in assay [4], in [6] and in assay [7] was inactive.
Take `N#Cc1ccc2c(c1)CN1CN2Cc2cc(C#N)ccc21`: the zone of inhibition at 250 µg/mL in assay [1], in [2], in assay [5], in assay [6], in assay [8] and in assay [9] was 13 mm each time. For the same molecule, the outcome in assay [3], in [4] and in assay [7] was inactive.
As to `Cc1cc(C#N)c2c(c1)CN1CN2Cc2cc(C)cc(C#N)c21`, the zone of inhibition at 250 µg/mL in assay [1] was determined as 13 mm; in assay [2], 8 mm; in assay [5], 8 mm; in [6], 13 mm; in [8] it was 8 mm; in assay [9], 8 mm. Moreover, the result in assay [3], in [4] and in [7] was inactive.
In the case of `O=[N+]([O-])c1ccc2c(c1)CN1CN2Cc2cc([N+](=O)[O-])ccc21`, the zone of inhibition at 250 µg/mL is 20 mm in assay [1]; 13 mm in [2]; 20 mm in assay [4]; 13 mm in assay [5]; 13 mm in [8]; 13 mm in [9]. For the same molecule, the outcome in [3], in assay [6] and in [7] was inactive.
In the case of `CCOc1ccc2c(c1)CN1CN2Cc2cc(OCC)ccc21`, the zone of inhibition at 250 µg/mL was 20 mm in assay [1]; 13 mm in [2]; 20 mm in assay [5]; 8 mm in assay [6]; 20 mm in [8]; 13 mm in assay [9]. The outcome in assay [3] and in assay [7] was Active. Also, the outcome in [4] was inactive.
For `Cc1ccc2c(c1C)N1Cc3ccc(C)c(C)c3N(C2)C1`, the zone of inhibition at 250 µg/mL amounted to 13 mm in assay [1]; 13 mm in assay [2]; 8 mm in [4]; 8 mm in assay [5]; 8 mm in assay [6]; 8 mm in assay [8]. Also, in [3], the outcome was Active. For the same molecule, the result in assay [7] and in assay [9] was inactive.
Regarding `Cc1cc(Br)c2c(c1)CN1CN2Cc2cc(C)cc(Br)c21`, the zone of inhibition at 250 µg/mL amounted to 13 mm in assay [1]; 13 mm in [2]; 13 mm in [5]; 8 mm in assay [6]; 13 mm in assay [8]; 13 mm in [9]. For the same molecule, the outcome in [3], in assay [4] and in assay [7] was inactive.
With `Cc1ccc2c(c1)CN1CN2Cc2cc(C)ccc21`, the zone of inhibition at 250 µg/mL in [1] worked out at 8 mm; in assay [2], 8 mm; in assay [5] it was 13 mm; in [6], 13 mm; in assay [8], 8 mm; in assay [9] it was 8 mm. Moreover, the result in assay [3], in [4] and in assay [7] was inactive.
As to `CCOC(=O)c1ccc2c(c1)CN1CN2Cc2cc(C(=O)OCC)ccc21`, the zone of inhibition at 250 µg/mL in assay [1] was determined as 20 mm; in assay [2], 13 mm; in assay [4] it was 20 mm; in assay [5], 20 mm; in assay [8], 20 mm; in [9] it was 13 mm. The result in assay [3], in assay [6] and in [7] was inactive.
For `COc1cc(C)c2c(c1)CN1CN2Cc2cc(OC)cc(C)c21`, the zone of inhibition at 250 µg/mL in [1] was 20 mm; in assay [2], 20 mm; in assay [4], 13 mm; in [5] it was 20 mm; in assay [6], 20 mm; in [8], 20 mm. Also, in [9], the zone of inhibition at 250 µg/mL turned out to be 8 mm. Also, in assay [3], the outcome was Active. Further, in assay [7], the result was inactive.
On to `CC(=O)c1cccc2c1N1Cc3cccc(C(C)=O)c3N(C2)C1`, for which the zone of inhibition at 250 µg/mL in [1] is 8 mm; in assay [2], 8 mm; in assay [5] it was 13 mm; in assay [6] it was 20 mm; in [8], 8 mm; in assay [9], 8 mm. For the same molecule, the result in [3] and in assay [4] was inactive. Besides, the outcome in assay [7] was Active.
On to `Cc1cc2c(cc1Br)N1Cc3cc(C)c(Br)cc3N(C2)C1`, for which the zone of inhibition at 250 µg/mL in [1] stood at 8 mm; in assay [2] it was 8 mm; in assay [4], 13 mm; in assay [5], 13 mm; in [6], 13 mm; in assay [8], 8 mm. For the same molecule, the zone of inhibition at 250 µg/mL in assay [9] came out at 8 mm. Further, the outcome in [3] and in assay [7] was inactive.
Turning to `Nc1ccc2c(c1)CN1CN2Cc2cc(N)ccc21`, the zone of inhibition at 250 µg/mL in [1], in assay [2], in assay [5], in [6], in [8] and in [9] was 13 mm in each case. In addition, the result in assay [3], in [4] and in [7] was inactive.
Regarding `Cc1cc(N)c2c(c1)CN1CN2Cc2cc(C)cc(N)c21`, the zone of inhibition at 250 µg/mL in [1], in assay [2], in assay [5], in [6], in assay [8] and in assay [9] was 13 mm in each case. The outcome in [3] was Active. Besides, the outcome in assay [4] and in assay [7] was inactive.
As for `Cc1ccc2c(c1O)CN1CN2Cc2c1ccc(C)c2O`, the zone of inhibition at 250 µg/mL in assay [1] came out at 8 mm; in [2], 8 mm; in [4] it was 13 mm; in assay [5], 13 mm; in assay [6], 13 mm; in assay [8], 8 mm. In addition, the zone of inhibition at 250 µg/mL in assay [9] is 8 mm. Also, the outcome in assay [3] and in assay [7] was inactive.
Take `COc1ccc2c(c1)CN1CN2Cc2cc(OC)ccc21`: the zone of inhibition at 250 µg/mL came to 20 mm in assay [1]; 13 mm in [2]; 20 mm in [4]; 20 mm in assay [5]; 20 mm in [6]; 20 mm in assay [8]. For the same molecule, the zone of inhibition at 250 µg/mL in assay [9] was found to be 13 mm. Besides, in assay [3], the result was Active. For the same molecule, the outcome in assay [7] was inactive.
For the molecule `CCCOC(=O)c1ccc2c(c1)CN1CN2Cc2cc(C(=O)OCCC)ccc21`, the zone of inhibition at 250 µg/mL in assay [1] was 13 mm; in assay [2], 20 mm; in assay [4], 20 mm; in assay [5] it was 20 mm; in assay [6] it was 13 mm; in assay [8], 20 mm. Further, the zone of inhibition at 250 µg/mL in [9] worked out at 13 mm. Moreover, the result in assay [3] and in assay [7] was Active.
